PubChem BioAssay AID1259407 (Chemical Carcinogenesis Research Information System (CCRIS), 2018)
Active and inactive are the calls of the source. The rule behind the calls is not given here.

Test system: CCRIS mutagenicity, Ames/micronucleus/aberration tests
Experiment: CCRIS mutagenicity studies
[1] = Test System: AMES SALMONELLA TYPHIMURIUM, Strain/Indicator: TA98, Metabolic Activation: NONE, Method: STANDARD PLATE
[2] = Test System: AMES SALMONELLA TYPHIMURIUM, Strain/Indicator: TA98, Metabolic Activation: RAT, LIVER, S-9, AROCLOR 1254, Method: STANDARD PLATE
[3] = Test System: AMES SALMONELLA TYPHIMURIUM, Strain/Indicator: TA100, Metabolic Activation: NONE, Method: STANDARD PLATE
[4] = Test System: AMES SALMONELLA TYPHIMURIUM, Strain/Indicator: TA100, Metabolic Activation: RAT, LIVER, S-9, AROCLOR 1254, Method: STANDARD PLATE
[5] = Test System: AMES SALMONELLA TYPHIMURIUM, Strain/Indicator: TA1535, Metabolic Activation: NONE, Method: STANDARD PLATE
[6] = Test System: AMES SALMONELLA TYPHIMURIUM, Strain/Indicator: TA1535, Metabolic Activation: RAT, LIVER, S-9, AROCLOR 1254, Method: STANDARD PLATE
[7] = Test System: AMES SALMONELLA TYPHIMURIUM, Strain/Indicator: TA1537, Metabolic Activation: NONE, Method: STANDARD PLATE
[8] = Test System: AMES SALMONELLA TYPHIMURIUM, Strain/Indicator: TA1537, Metabolic Activation: RAT, LIVER, S-9, AROCLOR 1254, Method: STANDARD PLATE
[9] = Test System: AMES SALMONELLA TYPHIMURIUM, Strain/Indicator: TA98, Metabolic Activation: NONE, Method: PREINCUBATION
[10] = Test System: AMES SALMONELLA TYPHIMURIUM, Strain/Indicator: TA100, Metabolic Activation: NONE, Method: PREINCUBATION

Structure (SMILES) | mutagenic call [1] | mutagenic call [2] | mutagenic call [3] | mutagenic call [4] | mutagenic call [5] | mutagenic call [6] | mutagenic call [7] | mutagenic call [8] | other results
O=S(=O)(NO)c1cccc2cccnc12 | inactive; negative | inactive; negative | inactive; negative | inactive; negative | inactive; negative | inactive; negative | inactive; negative | inactive; negative | 
Cc1nc2ccc(N)c(C)c2nc1C |  |  |  |  |  |  |  |  | mutagenic call [9]: inactive; negative; mutagenic call (Test System: AMES SALMONELLA TYPHIMURIUM, Strain/Indicator: TA98, Metabolic Activation: RAT, LIVER, S-9, PCB, Method: PREINCUBATION): active; positive; mutagenic call [10]: inactive; negative; mutagenic call (Test System: AMES SALMONELLA TYPHIMURIUM, Strain/Indicator: TA100, Metabolic Activation: RAT, LIVER, S-9, PCB, Method: PREINCUBATION): active; positive
O=C(N=c1sn(C(=O)c2ccccc2[N+](=O)[O-])c2ccc([N+](=O)[O-])cc12)c1ccccc1[N+](=O)[O-] |  |  |  |  |  |  |  |  | mutagenic call (Test System: AMES SALMONELLA TYPHIMURIUM, Strain/Indicator: TA100, Metabolic Activation: S-9, Method: STANDARD PLATE): active; positive
Oc1c(Cl)cc(Cl)c2cccnc12 |  |  |  |  |  |  |  |  | mutagenic call [9]: inactive; negative; mutagenic call (Test System: AMES SALMONELLA TYPHIMURIUM, Strain/Indicator: TA98, Metabolic Activation: RAT, LIVER, S-9, Method: PREINCUBATION): inactive; negative; mutagenic call [10]: inactive; negative; mutagenic call (Test System: AMES SALMONELLA TYPHIMURIUM, Strain/Indicator: TA100, Metabolic Activation: RAT, LIVER, S-9, Method: PREINCUBATION): inactive; negative
C[C@H](CCC(=O)NCCS(=O)(=O)O)[C@H]1CC[C@H]2[C@@H]3C[C@H](O)[C@@H]4C[C@H](O)CC[C@]4(C)[C@H]3CC[C@]12C | inactive; negative | inactive; negative | inactive; negative | inactive; negative | inactive; negative | inactive; negative | inactive; negative | inactive; negative | mutagenic call (Test System: AMES SALMONELLA TYPHIMURIUM, Strain/Indicator: TA1538, Metabolic Activation: NONE, Method: STANDARD PLATE): inactive; negative; mutagenic call (Test System: AMES SALMONELLA TYPHIMURIUM, Strain/Indicator: TA1538, Metabolic Activation: RAT, LIVER, S-9, AROCLOR 1254, Method: STANDARD PLATE): inactive; negative
COc1ccc2c(ccc3oc([N+](=O)[O-])cc32)c1 |  |  | active; positive |  |  |  |  |  | mutagenic call (Test System: AMES SALMONELLA TYPHIMURIUM, Strain/Indicator: TA100(NR), Metabolic Activation: NONE, Method: STANDARD PLATE): active; positive
CC(Cl)C(=O)NCc1ccccc1 (configuration not stated) |  |  | inactive; negative |  |  |  |  |  | mutagenic call (Test System: AMES SALMONELLA TYPHIMURIUM, Strain/Indicator: TA100, Metabolic Activation: MOUSE, LIVER, S-9, AROCLOR 1254, Method: STANDARD PLATE): inactive; negative
CC(C(=O)O)c1ccc(Oc2nccs2)cc1 (configuration not stated) | inactive; negative | inactive; negative | inactive; negative | inactive; negative | inactive; negative | inactive; negative | inactive; negative | inactive; negative | mutagenic call (Test System: E. COLI, Strain/Indicator: WP2, Metabolic Activation: NONE, Method: STANDARD PLATE): inactive; negative; mutagenic call (Test System: E. COLI, Strain/Indicator: WP2, Metabolic Activation: RAT, LIVER, S-9, AROCLOR 1254, Method: STANDARD PLATE): inactive; negative; mutagenic call (Test System: E. COLI, Strain/Indicator: WP2 UVRA, Metabolic Activation: NONE, Method: STANDARD PLATE): inactive; negative; mutagenic call (Test System: E. COLI, Strain/Indicator: WP2 UVRA, Metabolic Activation: RAT, LIVER, S-9, AROCLOR 1254, Method: STANDARD PLATE): inactive; negative
CCC1(C(C)O)OC1(C(N)=O)C(=O)OC (configuration not stated) | inactive; negative | inactive; negative |  |  |  |  |  |  | mutagenic call (Test System: AMES SALMONELLA TYPHIMURIUM, Strain/Indicator: TA98, Metabolic Activation: NONE, Method: DISK ASSAY): inactive; negative; mutagenic call (Test System: AMES SALMONELLA TYPHIMURIUM, Strain/Indicator: TA98, Metabolic Activation: RAT, LIVER, S-9, AROCLOR 1254, Method: DISK ASSAY): inactive; negative
